Results published in patent US12677850B2, “Stevia blends containing rebaudioside B” (Tate & Lyle Solutions USA LLC, priority 2011, dated 2026).

Assays:
[1] = assay type: physicochemical; conditions: pH 3
Method: To determine the solubility of rebaudioside A and rebaudioside B in certain solutions, four stock solutions were prepared. A 10× concentrated citric acid/sodium citrate pH 3 stock buffer solution was prepared by dissolving 0.9 g anhydrous citric acid and 0.26 g of sodium citrate dihydrate in water to make 100 mL of buffer (0.047 M citric acid+0.0088 M sodium citrate). A 2500 ppm (nominal) solution of rebaudioside A was prepared by dissolving 0.125 g of GLG RA 97 to make 50 mL of solution. A 2500 ppm (nominal) solution of stevioside was prepared by dissolving 0.125 g of GLG STV 97 to make 50 mL of solution. A 1000 ppm (nominal) solution of rebaudioside B was prepared by diluting 56 mL of a solution assayed at 1790 ppm to make 100 mL of solution.
These solutions were mixed as 1 mL total amounts by micropipetting the volumes, in microliters, into 1.5 mL microcentrifuge tubes As shown in Table 14.
After standing for […] (~100 hours), the tubes were spun in a bench top microcentrifuge to pelletize the precipitate. The clear supernate was sampled into vials and assayed for glycosides using a reverse phase high performance liquid chromatograph (HPLC) gradient method with UV detection (Waters 2695 Separations Module equipped with a Waters 2487 Dual X Absorbance Detector or equivalent instrumentation) that is summarized in Table 15. The HPLC conditions were as follows:
The supernatant data collected from the HPLC were processed using DESIGN EXPERT 8 software. Briefly, the data were entered into the program as “factor” data as a 2 factor-5 level general factorial design as the nominal data which were then converted to numerical data and replaced by the actual HPLC results. The software then selected a model that predicted the concentration (solubility) of rebaudioside B as a function of the concentration of rebaudioside A and stevioside in the supernatant. The software also calculated a number of statistical factors that indicated the significance of the model parameters.

[2] = previous reports; cited from earlier work

rebaudioside B
solubility [1]: limited
sweetness relative to rebaudioside A [2]: one-half to two-thirds
